Experimental data taken from patent US9777309B2, “High throughput assay for monitoring AMP production and aminoacyl-tRNA synthetase activity” (Board of Supervisors of Louisiana State University and …, priority 2014, dated 2017).

How the values were obtained:
[1] = target: G. stearothermophilus tyrosyl-tRNA synthetase (Geobacillus stearothermophilus, UniProt P00952); assay: Tyrosyl-tRNA synthetase assay with tRNA recycling (AMP release coupled to NADH); conditions: for kcat: aminoacylation of tRNA^Tyr by the named tyrosine isomer, 10 mM MgATP
G. stearothermophilus tyrosyl-tRNA synthetase, sequence (P00952 whole entry): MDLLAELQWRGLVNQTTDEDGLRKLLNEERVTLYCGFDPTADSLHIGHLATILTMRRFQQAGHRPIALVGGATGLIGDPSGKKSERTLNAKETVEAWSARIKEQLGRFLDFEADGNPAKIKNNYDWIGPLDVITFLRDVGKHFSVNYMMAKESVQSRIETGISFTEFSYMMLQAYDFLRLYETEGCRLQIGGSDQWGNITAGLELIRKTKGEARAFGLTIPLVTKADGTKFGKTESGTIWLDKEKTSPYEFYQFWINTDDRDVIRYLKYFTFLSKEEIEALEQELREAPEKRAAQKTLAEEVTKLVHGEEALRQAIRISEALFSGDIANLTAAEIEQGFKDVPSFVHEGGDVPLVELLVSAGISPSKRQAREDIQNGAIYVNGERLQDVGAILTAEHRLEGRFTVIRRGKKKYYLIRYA
Experimental: The pH of all stock solutions was adjusted to 7.0 prior to use. All kinetic assays were performed in 96 well microtiter plates at 25° C. using either 100 or 200 μl of assay mix per well. Under these conditions, the path lengths are 0.28 and 0.56 cm, respectively. The reaction rate for formation of the L-Tyr-tRNA^TYr product was determined by monitoring the increase in absorbance at 340 nm associated with the conversion of NAD^+ to NADH using a BioTek Synergy 4 plate reader (ε340=6220 M^−1 cm^−1).
Initial rates for each substrate concentration were determined from a linear fit of the data (A340 vs. time). Km and Vmax values were determined by fitting a plot of the initial rate vs. substrate concentration to the Michaelis-Menten equation, the same equations (1) and (2) above:
[formula] where vo is the initial rate of the reaction and [S] is the substrate concentration. kcat values were calculated from the equation: Vmax=kcat[E]

[2] = target: IMP dehydrogenase (Saccharomyces cerevisiae, UniProt P50095); type: biochemical
IMP dehydrogenase, sequence (P50095 whole entry): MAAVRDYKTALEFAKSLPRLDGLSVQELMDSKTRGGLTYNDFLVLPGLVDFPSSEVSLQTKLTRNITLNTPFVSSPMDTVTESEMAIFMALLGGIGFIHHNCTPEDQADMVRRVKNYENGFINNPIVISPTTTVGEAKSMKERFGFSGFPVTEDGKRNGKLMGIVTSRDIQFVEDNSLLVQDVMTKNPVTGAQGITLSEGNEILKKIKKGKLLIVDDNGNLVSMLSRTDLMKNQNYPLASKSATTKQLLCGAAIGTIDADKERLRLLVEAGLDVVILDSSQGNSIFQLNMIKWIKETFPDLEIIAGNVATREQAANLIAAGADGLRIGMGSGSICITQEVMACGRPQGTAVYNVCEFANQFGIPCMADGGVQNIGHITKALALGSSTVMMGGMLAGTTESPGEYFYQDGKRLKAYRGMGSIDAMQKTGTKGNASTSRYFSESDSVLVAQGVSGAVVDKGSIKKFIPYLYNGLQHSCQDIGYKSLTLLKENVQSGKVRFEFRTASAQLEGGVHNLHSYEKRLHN

Structure (SMILES) | kcat [1] | Km^D-Tyr lower than Kd^D-Tyr determined by single turnover kinetics ([1]; single turnover assay was in the absence of tRNA^Tyr) [fold] | Km ([2]; 50 mM TRIS pH 7.2, 25° C., other substrate at 5 mM, standard error in parenthesis) [µM] | affinity higher than for the C. albicans IMP dehydrogenase homolog ([2]; S. cerevisiae vs Candida albicans enzyme) [fold]
N[C@H](Cc1ccc(O)cc1)C(=O)O [D-Tyrosine, D-tyrosine] | 0.32 (±0.08) s^−1 | 8 | – | –
NC(=O)c1ccc[n+]([C@@H]2O[C@H](COP(=O)([O-])OP(=O)(O)OC[C@H]3O[C@@H](n4cnc5c(N)ncnc54)[C@H](O)[C@@H]3O)[C@@H](O)[C@H]2O)c1 [NAD^+] | – | – | 800 | 4
N[C@@H](Cc1ccc(O)cc1)C(=O)O [L-Tyrosine, L-tyrosine] | 2.8 (±0.6) s^−1 | – | – | –
